For 17 compounds, IC50 and MTAP intact/deleted ratio results are on record in US11999727B2 (Tango Therapeutics, Inc., priority 2020, dated 2024).

Assay [1] relates to HAP1 MTAP-deleted cell line. As to the kind of experiment: Viability assay, MTAP-deleted cell line. In kind it is cell-based. The conditions noted are these: Homo sapiens, HAP1, viability assay, HAP1 MTAP-deleted; read-out: HAP1 MTAP deleted viability. The source says: Table 1 additionally indicates IC50 values in a viability assay for the MTAP-deleted cell line (column 10), indicating the effect of treatment with compound on cell survival.

Assay [2] concerns the target T1, PRMT5 (Homo sapiens, UniProt O14744).
T1 construct: purchased Viva (custom protein)
As to the kind of experiment: PRMT5 biochemical IC50 assay with no cofactor. The conditions noted are these: PRMT5, no cofactor; read-out: No Cofactor/rel IC50. The source says: Table 1 indicates IC50 values (μM) against PRMT5 for exemplary compounds in the presence of SAM as cofactor, with no cofactor, and with MTA as cofactor, respectively (columns 4-6). […] Ki values can be calculated from the IC50 values as described in the Examples section. As detailed in the Examples section, for the assay performed in the presence of SAM, IC50=Ki×1.5 (Ki=IC50/1.5).

Assay [3] deals with HAP1 MTAP-deleted cell line. As to the kind of experiment: SDMA in-cell western assay, HAP1 MTAP-deleted. It is filed as cell-based. The note with it: for IC50: Homo sapiens, HAP1, SDMA in-cell western, HAP1 MTAP-deleted, read-out: HAP1 MTAP deleted IC50; for MTAP intact/deleted ratio: IC50 ratio HAP1 MTAP-intact / HAP1 MTAP-deleted, SDMA in-cell western. A digest of the protocol: (§1)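 MTAP-null vs endogenous-MTAP HAP1 isogenic cells; in-cell western SDMA readout; IC50 per line.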

Assay [4] relates to HAP1 MTAP-intact cell line. Description: SDMA in-cell western assay, HAP1 MTAP-intact. In kind it is cell-based. The note with it: Homo sapiens, HAP1, SDMA in-cell western, HAP1 MTAP-intact; read-out: MTAP HAP1 intact IC50. A digest of the protocol: as §1
In assay [5] the target is T1, PRMT5. As to the kind of experiment: PRMT5 biochemical IC50 assay with SAM as cofactor. The conditions noted are these: PRMT5, SAM as cofactor; read-out: SAM IC50.
For assay [6], the target named is T1, PRMT5. As to the kind of experiment: PRMT5 biochemical IC50 assay with MTA as cofactor. The note with it: PRMT5, MTA as cofactor; read-out: MTA IC50.

Each structure is given as a SMILES string.

T1 sequence (O14744 whole entry): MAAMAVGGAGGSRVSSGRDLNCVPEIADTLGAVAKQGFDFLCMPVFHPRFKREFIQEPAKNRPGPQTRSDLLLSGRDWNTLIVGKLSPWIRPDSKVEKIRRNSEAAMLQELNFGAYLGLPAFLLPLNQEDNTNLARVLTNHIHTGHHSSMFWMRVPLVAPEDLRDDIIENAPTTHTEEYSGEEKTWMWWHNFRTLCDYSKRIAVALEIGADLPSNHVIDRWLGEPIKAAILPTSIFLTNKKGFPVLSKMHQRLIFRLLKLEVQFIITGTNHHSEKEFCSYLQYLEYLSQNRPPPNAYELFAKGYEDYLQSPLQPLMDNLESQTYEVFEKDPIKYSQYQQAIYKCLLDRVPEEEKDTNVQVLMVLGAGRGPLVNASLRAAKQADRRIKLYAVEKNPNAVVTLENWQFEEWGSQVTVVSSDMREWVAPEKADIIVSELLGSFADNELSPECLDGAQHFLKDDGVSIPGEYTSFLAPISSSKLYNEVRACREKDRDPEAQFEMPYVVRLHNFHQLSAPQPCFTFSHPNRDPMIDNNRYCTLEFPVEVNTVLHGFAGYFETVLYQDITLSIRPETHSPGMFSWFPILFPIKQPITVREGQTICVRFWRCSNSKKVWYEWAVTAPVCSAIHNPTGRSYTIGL
T1 sequence (Q9BQA1 whole entry partner): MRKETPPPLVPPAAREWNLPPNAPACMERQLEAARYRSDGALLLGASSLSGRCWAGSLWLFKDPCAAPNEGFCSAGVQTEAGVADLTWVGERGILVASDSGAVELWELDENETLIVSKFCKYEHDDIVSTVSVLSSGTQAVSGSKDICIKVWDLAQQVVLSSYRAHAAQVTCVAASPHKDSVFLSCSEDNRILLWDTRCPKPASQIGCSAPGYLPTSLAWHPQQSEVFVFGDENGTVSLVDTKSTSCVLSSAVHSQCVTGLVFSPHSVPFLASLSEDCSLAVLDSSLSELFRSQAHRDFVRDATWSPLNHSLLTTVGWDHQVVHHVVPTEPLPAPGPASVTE

`Cc1nc2cc([C@@H]3CC[C@@H](C)CN3C(=O)C(=O)Nc3cnc(N)c(C)c3)ccc2s1` (single isomer, unassigned) [Compound 730]: the IC50 in assay [1] is more than 10 µM; in assay [2], more than 500 nM; in assay [3], more than 1000 nM; in assay [4] it was more than 1000 nM; in assay [5], more than 500 nM; in assay [6], more than 500 nM. Moreover, in assay [3], the MTAP intact/deleted ratio result was “C (an IC50 ratio of less than 3 fold)”.
Regarding `C[C@H]1CN(C(=O)C(=O)Nc2cncc(C(N)=O)c2)[C@H](c2ccc(F)cc2)CC1(F)F` (single isomer, unassigned) [Compound 731], the IC50 is 1 to 10 µM in assay [1]; 50 to 500 nM in assay [2]; less than 100 nM in assay [3]; more than 1000 nM in assay [4]; 50 to 500 nM in assay [5]; less than 50 nM in assay [6]. For the same compound, in assay [3], the MTAP intact/deleted ratio result is listed as “A (an IC50 ratio greater than or equal to 10 fold)”.
As to `CC(=O)Nc1ccc([C@@H]2CC[C@@H](C)CN2C(=O)C(=O)Nc2cnc(N)c(C)c2)s1` (single isomer, unassigned) [Compound 732], the IC50 in assay [1] was 1 to 10 µM; in assay [2], 50 to 500 nM; in assay [3], 100 to 1000 nM; in assay [4], more than 1000 nM; in assay [5], 50 to 500 nM; in assay [6] it was less than 50 nM. Besides, the MTAP intact/deleted ratio result in assay [3] is “A (an IC50 ratio greater than or equal to 10 fold)”.
In the case of `Cc1cc(NC(=O)C(=O)N2C[C@@H](C)CC[C@@H]2c2ccc(C(N)=O)s2)cnc1N` (single isomer, unassigned) [Compound 733], the IC50 in assay [1] was less than 1 µM; in assay [2], less than 50 nM; in assay [3], less than 100 nM; in assay [4] it was 100 to 1000 nM; in assay [5], 50 to 500 nM; in assay [6], less than 50 nM. Moreover, the MTAP intact/deleted ratio entry in assay [3] was “A (an IC50 ratio greater than or equal to 10 fold)”.
For the compound `Cc1cc(NC(=O)C(=O)N2C[C@@H](C)CC[C@@H]2c2cc(F)cc(F)c2)cnc1N` (single isomer, unassigned) [Compound 734, N-(6-amino-5-methylpyridin-3-yl)-2-(2-(3,5-difluorophenyl)-5-methylpiperidin-1-yl)-2-oxoacetamide], the IC50 in assay [1] is 1 to 10 µM; in assay [2] it was less than 50 nM; in assay [3], less than 100 nM; in assay [4] it was more than 1000 nM; in assay [5], 50 to 500 nM; in assay [6] it was less than 50 nM. In addition, the MTAP intact/deleted ratio result in assay [3] is recorded as “A (an IC50 ratio greater than or equal to 10 fold)”.
Take `Cc1cc(NC(=O)C(=O)N2C[C@H](C)C(F)(F)C[C@H]2c2ccccc2)cnc1N` (single isomer, unassigned) [Compound 735]: the IC50 in assay [1] is less than 1 µM; in assay [2] it was less than 50 nM; in assay [3] it was less than 100 nM; in assay [4] it was 100 to 1000 nM; in assay [5], less than 50 nM; in assay [6], less than 50 nM. For the same compound, the MTAP intact/deleted ratio entry in assay [3] is on record as “A (an IC50 ratio greater than or equal to 10 fold)”.
`CCc1cc(NC(=O)C(=O)N2C[C@H](C)CC[C@H]2c2ccccc2)cnc1N` (single isomer, unassigned) [Compound 736]: the IC50 in assay [1] is less than 1 µM; in assay [2] it was less than 50 nM; in assay [3] it was less than 100 nM; in assay [4], more than 1000 nM; in assay [5] it was 50 to 500 nM; in assay [6], less than 50 nM. For the same compound, in assay [3], the MTAP intact/deleted ratio entry is recorded as “A (an IC50 ratio greater than or equal to 10 fold)”.
As for `COc1ncc(NC(=O)C(=O)N2C[C@@H](C)CC[C@@H]2c2cc(F)c(F)c(F)c2)cc1C(N)=O` (single isomer, unassigned) [Compound 739], the IC50 in assay [1] is more than 10 µM; in assay [2], more than 500 nM; in assay [3] it was more than 1000 nM; in assay [4], more than 1000 nM; in assay [5] it was more than 500 nM; in assay [6], more than 500 nM. Besides, the MTAP intact/deleted ratio entry in assay [3] is on record as “B (an IC50 ratio greater than or equal to 3 fold but lower than 10 fold)”.
`C[C@@H]1CC[C@@H](c2ccc3c(c2)CNC3=O)N(C(=O)C(=O)Nc2cncc(C(N)=O)c2)C1` (single isomer, unassigned) [Compound 740, 5-(2-(5-methyl-2-(1-oxoisoindolin-5-yl)piperidin-1-yl)-2-oxoacetamido)nicotinamide]: the IC50 in assay [1] was 1 to 10 µM; in assay [2], 50 to 500 nM; in assay [3] it was more than 1000 nM; in assay [4] it was more than 1000 nM; in assay [5], 50 to 500 nM; in assay [6], less than 50 nM. Further, the MTAP intact/deleted ratio entry in assay [3] is recorded as “B (an IC50 ratio greater than or equal to 3 fold but lower than 10 fold)”.
In the case of `C[C@H]1CC[C@H](c2ccc3c(c2)CNC3=O)N(C(=O)C(=O)Nc2cncc(C(N)=O)c2)C1` (single isomer, unassigned) [Compound 741, 5-(2-(5-methyl-2-(1-oxoisoindolin-5-yl)piperidin-1-yl)-2-oxoacetamido)nicotinamide], the IC50 was more than 10 µM in assay [1]; more than 500 nM in assay [2]; more than 1000 nM in assay [3]; more than 1000 nM in assay [4]; more than 500 nM in assay [5]; more than 500 nM in assay [6]. The MTAP intact/deleted ratio entry in assay [3] was “C (an IC50 ratio of less than 3 fold)”.
In the case of `COc1ncc(NC(=O)C(=O)N2C[C@H](C)CC[C@H]2c2cc(F)c(F)c(F)c2)cc1C(N)=O` (single isomer, unassigned) [Compound 742], the IC50 in assay [1] was 1 to 10 µM; in assay [2], 50 to 500 nM; in assay [3], 100 to 1000 nM; in assay [4], more than 1000 nM; in assay [5], 50 to 500 nM; in assay [6] it was less than 50 nM. The MTAP intact/deleted ratio entry in assay [3] was “A (an IC50 ratio greater than or equal to 10 fold)”.
`C[C@@H]1CC[C@@H](c2ccc3c(c2)C(=O)NC3)N(C(=O)C(=O)Nc2cncc(C(N)=O)c2)C1` (single isomer, unassigned) [Compound 746]: the IC50 in assay [1] is 1 to 10 µM; in assay [2] it was less than 50 nM; in assay [3], 100 to 1000 nM; in assay [4], more than 1000 nM; in assay [5], 50 to 500 nM; in assay [6] it was less than 50 nM. Moreover, in assay [3], the MTAP intact/deleted ratio result was “A (an IC50 ratio greater than or equal to 10 fold)”.
For the compound `CCc1cc(NC(=O)C(=O)N2C[C@@H](C)CC[C@@H]2c2ccc3[nH]cnc3c2)cnc1N` (single isomer, unassigned) [Compound 748], the IC50 in assay [1] was less than 1 µM; in assay [2] it was less than 50 nM; in assay [3] it was less than 100 nM; in assay [4], 100 to 1000 nM; in assay [5] it was 50 to 500 nM; in assay [6], less than 50 nM. In assay [3], the MTAP intact/deleted ratio entry is “A (an IC50 ratio greater than or equal to 10 fold)”.
Consider `COc1ncc(NC(=O)C(=O)N2C[C@H](C)CC[C@H]2c2ccc3c(c2)CNC3=O)cc1C(N)=O` (single isomer, unassigned) [Compound 749, 2-methoxy-5-(2-(5-methyl-2-(1-oxoisoindolin-5-yl)piperidin-1-yl)-2-oxoacetamido)nicotinamide], for which the IC50 in assay [1] was 1 to 10 µM; in assay [2] it was 50 to 500 nM; in assay [3], 100 to 1000 nM; in assay [4] it was more than 1000 nM; in assay [5], 50 to 500 nM; in assay [6], less than 50 nM. The MTAP intact/deleted ratio entry in assay [3] is reported as “A (an IC50 ratio greater than or equal to 10 fold)”.
In the case of `COc1ncc(NC(=O)C(=O)N2C[C@@H](C)CC[C@@H]2c2ccc3c(c2)CNC3=O)cc1C(N)=O` (single isomer, unassigned) [Compound 750, 2-methoxy-5-(2-(5-methyl-2-(1-oxoisoindolin-5-yl)piperidin-1-yl)-2-oxoacetamido)nicotinamide], the IC50 was more than 10 µM in assay [1]; more than 500 nM in assay [2]; more than 1000 nM in assay [3]; more than 1000 nM in assay [4]; more than 500 nM in assay [5]; more than 500 nM in assay [6]. Further, the MTAP intact/deleted ratio result in assay [3] was “C (an IC50 ratio of less than 3 fold)”.
Consider `C[C@H]1CC[C@H](c2ccc3c(c2)C(=O)NC3)N(C(=O)C(=O)Nc2cncc(C(N)=O)c2)C1` (single isomer, unassigned) [Compound 751], for which the IC50 in assay [1] was more than 10 µM; in assay [2], more than 500 nM; in assay [3], more than 1000 nM; in assay [4] it was more than 1000 nM; in assay [5] it was more than 500 nM; in assay [6] it was more than 500 nM. Moreover, the MTAP intact/deleted ratio result in assay [3] is recorded as “C (an IC50 ratio of less than 3 fold)”.
As to `COc1ncc(NC(=O)C(=O)N2C[C@H](C)CC[C@H]2c2ccc(C)nc2)cc1C(N)=O` (single isomer, unassigned) [Compound 754], the IC50 in assay [1] is 1 to 10 µM; in assay [2], 50 to 500 nM; in assay [3] it was less than 100 nM; in assay [4], more than 1000 nM; in assay [5], 50 to 500 nM; in assay [6], less than 50 nM. The MTAP intact/deleted ratio entry in assay [3] was “A (an IC50 ratio greater than or equal to 10 fold)”.
